Test results published in patent US8906888B2, “Low-calcemic 16,23-diene 25-oxime analogs of 1α,25-dihydroxy vitamin D3” (Cytochroma Inc., priority 2005, dated 2014).

Assays:
[1] = tested on: SCC-25 cells; experiment: [3H]-Thymidine proliferation assay with SCC-25 cells; format: cell-based; details: head and neck cancer cells, 3 days, 3H-thymidine incorporation
Protocol: 1. Preparation of Cell Suspension • When SCC-25 cells were 70-80% confluent, aspirated media. Washed the cells with 1×PBS. Trypsinized with trypsin-EDTA from the plate, collected cells from the tissue culture flask, centrifuged (500×g, 5 min) and resuspended in media.
2. Cell Plating. • Counted the cells and adjusted the cell density to 10,000/ml. Added 200 μl per well in a 96 well plate. Incubated plate for 24 h at 37° C. in a humidified atmosphere plus 5% CO2. Aspirated used media and replaced with 175 μl per well with media.
3. Substrate Addition. • Added 25 μl of compound (final concentration 10^−7 M, 5×10^−8 M, 10^−8 M, 5×10^−9 M, 10^−10 M or 0 M) into each designated well. Incubated plates for 3 days at 37° C. in a humidified atmosphere plus 5% CO2.
4. ^3H-Thymidine Incorporation. • Added ^3H-thymidine at 0.02 μCi per well and incubated at 37° C. in a humidified atmosphere plus 5% CO2 for 6 h.
5. Plate Harvesting. • Aspirated all media and washed cells with 1×PBS. Trypsinized cells for 30 min at 37° C. in a humidified atmosphere plus 5% CO2. Harvested cells onto a 96 well filter plate (Millipore) using a Tomtec Cell Harvestor, according to manufacturers instructions.
6. Scintillation Counting. • Added 25 μl of scintillation fluid per well. Counted the plate using a scintillation counter. Results: Compound (20R)-1(e) inhibited SCC-25 cell proliferation.

[2] = target: T1, CYP27A1 (Homo sapiens, UniProt Q02318); experiment: CYP27A1 enzyme assay; format: biochemical; details: read-out: IC50 in the inhibition of CYP27A1
T1 sequence (Q02318 34-531): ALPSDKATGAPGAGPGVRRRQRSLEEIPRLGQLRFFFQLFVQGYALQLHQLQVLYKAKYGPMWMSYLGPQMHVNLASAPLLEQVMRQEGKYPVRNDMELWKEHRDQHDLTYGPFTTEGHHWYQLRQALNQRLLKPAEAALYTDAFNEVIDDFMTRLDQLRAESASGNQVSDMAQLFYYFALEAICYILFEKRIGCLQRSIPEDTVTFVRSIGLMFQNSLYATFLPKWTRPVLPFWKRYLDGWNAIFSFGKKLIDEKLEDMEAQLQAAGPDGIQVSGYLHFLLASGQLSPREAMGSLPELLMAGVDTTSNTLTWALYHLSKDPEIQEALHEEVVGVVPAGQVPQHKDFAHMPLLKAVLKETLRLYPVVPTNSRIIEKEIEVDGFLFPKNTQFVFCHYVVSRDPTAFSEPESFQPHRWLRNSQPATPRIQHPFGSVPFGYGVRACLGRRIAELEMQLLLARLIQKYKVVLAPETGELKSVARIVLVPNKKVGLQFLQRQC

[3] = tested on: CYP24 mRNA; experiment: CYP24 transcriptional activation assay in U-937 cells (real time PCR); format: cell-based, human; details: six hours, normalized to GAPDH, 100 nM calcitriol set to 100%
Protocol: 1α,25(OH)2D3 1 mM reconstituted in isopropanol
• Sodium pyruvate • Non-essential amino acids • HEPES • 10% fetal bovine serum Phorbol 12-myristate 13-acetate (PMA) 24-well plate Isopropanol TRIzol® reagent (Invitrogen) Chloroform Ethanol Diethylpyrocarbonate treated dH2O Thermoscript™ RT-PCR System kit (Invitrogen) Human CYP24 TaqMan® Probe (Applied Biosystems Inc) Human GAPDH TaqMan® Probe (Applied Biosystems Inc) TaqMan® Universal Master Mix Probe (Applied Biosystems Inc) (ii) Procedure:
1. Cell Culture, Stimulation and Plating • Cultured U-937 cells in 4+RPMI media to a level of ≈80% confluence. Pelleted cells by centrifugation and resuspended to a concentration of 5×10^5 cells per 1 ml media. Treated U-937 cells with a final concentration of PMA of 20 ng/ml. To each well, of a 24-well plate, added 1 ml of cell suspension and incubated overnight at 37° C., in a humidified atmosphere containing 5% CO2, for adherence of cells to the wells.
2. Cell Treatment and TRIzol® Addition • Changed the media with 1 ml of fresh 4+RPMI media. Added 1 μl of the working solutions of 1, 10, and 100 μM of the compound being tested, in triplicate. Added 1 μl of isopropanol as a control, in triplicate. Incubated the cells for six hours at 37° C., in a humidified atmosphere containing 5% CO2, aspirated off the media and then added 1 ml of TRIzol® reagent. Transferred TRIzol® with cell lysate to a 1.7 ml microcentrifuge tube and stored at −80° C.
3. […] Determined the concentration of RNA using a spectrophotometer to measure the optical density of each sample, at a wavelength of 260 nm. […]
4. CYP24/GAPDH Real Time PCR • Determined the amount of CYP24 and GAPDH mRNA present in each sample using commercial TaqMan® probes, from Applied Biosystems Inc. (Foster City, Calif.). Detected both genes in the same 20 μl reaction, using an ABI PRISM 96-well optical reaction plate and cycle 50 times using an ABI Prism 7000 Sequence Detection System® (ABI). […]

Which results are given for `C=C1/C(=C\C=C2/CCC[C@]3(C)C([C@H](C)C/C=C/C(=NOC)C(C)(C)C)=CC[C@@H]23)C[C@@H](O)C[C@@H]1O` [(20R)-I(e)]?
Inhibition of SCC-25 cell proliferation [1]: inhibited; IC50 [2]: > 1 µM; CYP24 mRNA induction, activity as % of that for calcitriol at 100 nM [3]: 65%
